Results as given in patent US20070189970A1, “Contrast medium for thrombus formation” (Astellas Pharma Inc., priority 2004, published 2007).
Counter-ions that a name gives are not always drawn.

Key:
active GPIIb/IIIa = target: T1, active GPIIb/IIIa (Homo sapiens, UniProt P05106+P08514); experiment: Test 1: inhibitory activity of adenosine diphosphate (ADP)-induced platelet aggregation in platelet rich plasma; format: cell-based; settings: for R/A ratio: IC50 (R) of Test 2 / IC50 (A) of Test 1, selective binding ability toward the active GPIIb/IIIa; for IC50: human PRP 3×10^8 platelets/ml, 37° C., read-out: A Inhibition of platelet aggregation IC50
T1 construct: Platelet rich plasma (PRP) containing 3×10^8 platelets/ml was prepared from human blood; endogenous in cells
T1 sequence (P08514 32-887 limits assumed): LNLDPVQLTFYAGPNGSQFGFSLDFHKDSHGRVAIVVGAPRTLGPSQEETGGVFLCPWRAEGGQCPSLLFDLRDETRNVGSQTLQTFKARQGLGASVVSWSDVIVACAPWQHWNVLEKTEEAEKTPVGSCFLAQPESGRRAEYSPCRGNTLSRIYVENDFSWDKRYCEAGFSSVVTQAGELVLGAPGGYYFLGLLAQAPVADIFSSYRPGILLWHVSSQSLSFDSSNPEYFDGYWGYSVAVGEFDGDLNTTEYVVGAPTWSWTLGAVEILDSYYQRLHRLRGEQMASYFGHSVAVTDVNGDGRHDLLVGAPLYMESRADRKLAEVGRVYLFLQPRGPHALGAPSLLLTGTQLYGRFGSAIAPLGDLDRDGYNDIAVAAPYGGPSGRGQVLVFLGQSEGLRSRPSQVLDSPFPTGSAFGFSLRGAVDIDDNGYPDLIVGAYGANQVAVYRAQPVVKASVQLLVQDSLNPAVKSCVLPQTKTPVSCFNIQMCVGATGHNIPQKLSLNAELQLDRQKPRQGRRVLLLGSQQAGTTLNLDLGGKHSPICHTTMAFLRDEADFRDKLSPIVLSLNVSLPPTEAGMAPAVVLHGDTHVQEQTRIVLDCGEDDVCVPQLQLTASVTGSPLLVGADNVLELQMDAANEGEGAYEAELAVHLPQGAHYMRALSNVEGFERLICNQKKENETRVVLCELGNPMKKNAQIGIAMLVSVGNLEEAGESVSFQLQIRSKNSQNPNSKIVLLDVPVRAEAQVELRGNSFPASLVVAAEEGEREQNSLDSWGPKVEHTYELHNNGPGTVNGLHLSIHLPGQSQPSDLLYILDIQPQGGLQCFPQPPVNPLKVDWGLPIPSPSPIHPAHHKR
T1 sequence (P08514 891-1039 partner limits assumed): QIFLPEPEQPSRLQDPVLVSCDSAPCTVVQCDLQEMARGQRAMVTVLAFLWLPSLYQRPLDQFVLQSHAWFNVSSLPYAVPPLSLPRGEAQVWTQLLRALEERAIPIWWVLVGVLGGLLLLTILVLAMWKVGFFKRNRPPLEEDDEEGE
T1 sequence (P05106 27-788): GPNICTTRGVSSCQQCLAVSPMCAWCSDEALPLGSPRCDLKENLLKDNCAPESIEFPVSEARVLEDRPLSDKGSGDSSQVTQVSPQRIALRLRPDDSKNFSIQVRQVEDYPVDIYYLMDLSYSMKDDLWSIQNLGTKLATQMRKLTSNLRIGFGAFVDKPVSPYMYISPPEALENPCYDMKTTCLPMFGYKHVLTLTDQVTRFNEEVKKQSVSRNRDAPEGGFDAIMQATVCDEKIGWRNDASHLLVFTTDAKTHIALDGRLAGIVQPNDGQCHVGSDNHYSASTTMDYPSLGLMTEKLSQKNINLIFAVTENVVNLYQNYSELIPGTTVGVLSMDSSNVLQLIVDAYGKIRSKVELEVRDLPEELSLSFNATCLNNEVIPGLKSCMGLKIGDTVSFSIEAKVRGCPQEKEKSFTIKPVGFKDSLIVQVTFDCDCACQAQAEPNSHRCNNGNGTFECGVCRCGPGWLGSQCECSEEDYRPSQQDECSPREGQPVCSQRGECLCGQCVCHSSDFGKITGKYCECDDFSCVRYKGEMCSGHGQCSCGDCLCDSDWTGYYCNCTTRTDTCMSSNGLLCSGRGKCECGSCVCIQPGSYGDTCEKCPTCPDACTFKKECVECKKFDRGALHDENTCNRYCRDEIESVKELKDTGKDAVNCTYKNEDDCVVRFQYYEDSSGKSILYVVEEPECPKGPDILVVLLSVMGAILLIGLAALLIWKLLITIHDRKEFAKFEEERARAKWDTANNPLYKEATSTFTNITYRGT
Method: Test 1: Measurement of Inhibitory Activity of Adenosine Diphosphate (ADP)-induced Platelet Aggregation
Platelet rich plasma (PRP) containing 3×10^8 platelets/ml was prepared from human blood. To 225 μl of PRP, 25 μl of a solution of the test compound was added and stirred at 37° C. for 2 min. To the solution, 5 μl of ADP (final concentration: 2.5 μM) was added as an aggregation inducing agent. Aggregation was measured with aggregometer (NBS HEMA-TRACER 801). The procedure was as follows. Light transmittance of PRP was calibrated to 100%. PRP was incubated in the aggregometer at 37° C. for 2 min. ADP was added […], and the change in light transmittance was monitored by PL500 recorder (Yokogawa, Japan). Percent inhibition of aggregation by the test compound was calculated by comparison with the aggregation in the absence of the test compound. The activity of an […] (test compound) is represented as a value of IC50, i.e., a dose required for the […] inhibition of the platelet aggregation.

resting GPIIb/IIIa = target: T2, resting GPIIb/IIIa (Homo sapiens, UniProt P05106+P08514); experiment: Test 2: suppression activity of fibrinogen adhesion of prostaglandin E1 (PGE1)-treated platelet; format: cell-based; settings: for IC50: washed PGE1 (1 μM)-treated platelets, plates coated with human fibrinogen 1 μg/well, 37° C. 30 min, read-out: R Suppression of fibrinogen adhesion IC50
T2 construct: Platelet rich plasma (PRP) was prepared by centrifugation of whole blood; endogenous in cells; host or cells: washed platelets from venous blood, kept resting with 1 μM PGE1
T2 sequence (P08514 32-887 limits assumed): as the sequence (P08514 32-887 limits assumed) above
T2 sequence (P08514 891-1039 partner limits assumed): as the sequence (P08514 891-1039 partner limits assumed) above
T2 sequence (P05106 27-788): as the sequence (P05106 27-788) above
Method: Test 2: Measurement of Suppression Activity of Fibrinogen Adhesion of Prostaglandin E1 (PGE 1)-treated Platelet
Venous blood was collected onto sodium citrate. Platelet rich plasma (PRP) was prepared by centrifugation of whole blood. Platelets were washed with modified HEPES-Tyrode's buffer (129 mM NaCl, 2.8 mM KCl, 0.8 mM KH2PO4, 8.9 mM NaHCO3, 0.8 mM MgCl2, 10 mM HEPES, 5.5 mM Glucose, 0.1% BSA,.pH 7.4) containing 1μM PGE1. After washing, platelets were suspended in modified HEPES-Tyrode's buffer containing 1.0 mM CaCl2 and 1 μM PGE1 and the number of platelet was adjusted.
Adhesion assay was carried out as follows. 96-well microtiter plates were coated with 1 μg/well of human fibrinogen. The plates were then blocked with 1% BSA. After washing the plates with the buffer, the washed platelets were added to each well in the presence of the test compound or buffer and incubated at 37° C. for 30 min. The plates were then washed three times with buffer. The number of adhered cells was determined by measuring the acid phosphatase activity of cells using a microplate reader at 410 nm. Percent inhibition of adhesion in the sample treated with the test compound was calculated by comparison with the adhesion in absence of the test compound. The activity of the test compound was represented by a value of IC50, i.e. a dose required for the […] inhibition of the platelet adhesion.

monkey thrombus model = experiment: Accumulation of radioactivity at thrombus, blood and muscle in monkey thrombus model (PET, gamma counter); format: in vivo, monkey (Macaca fasciculans); settings: 90 min after the administration
Source text: Kinetics of the labeled compounds in the body of monkey (Macaca fasciculans) was studied by using the contrast mediums labeled with [^11C] and [^18F] prepared in Production Examples 21 and 22, respectively.
According to the canine saphenous vein (which is formed with a confluence of dorsal digital veins of hallux and arcuate veins of foot, and ascends in front of a medial malleolus and behind of a medial condyle of femur, crosses a saphenous opening of patellar retinaculum and pour into a femoral vein over a femoral triangle) thrombosis model (Knight L. C. et al., Thromb Haemost., 1998, 80, p.845-851 and Lister-James L. et al., J. Nucl Med. 1996, 37, p.775-781), a platinum embolization coil (Boston Scientific Japan) was inserted and placed in the right femoral vein of the monkey while anesthetized and wound was sutured.
Three hours after the insertion of the coil, the contrast mediums prepared in Production Examples 21 and 22, respectively, were administered intravenously (740 MBq/2 ml-saline). Imaging was performed for 90 min with a high-resolution positron emission tomography (PET) scanner (SHR-7700, Hamamatsu Photonics K.K., Japan). After PET measurement, the coil was removed, and the right femoral vein was collected to obtain a thrombus sample. Thigh muscle was collected, and saphenous artery was punctured to collect an arterial blood sample. The thrombus, thigh muscle and arterial blood samples were weighed and their radioactivity was measured with gamma counter (1480 WIZARD, Wallac Oy, Finland).
Data was calculated as percent of injected dose ([…]).

[1] = listed as Production Example 21

R/A ratio (active GPIIb/IIIa)	IC50 (active GPIIb/IIIa; ADP final concentration 2.5 μM)	IC50 (resting GPIIb/IIIa)	Compound	also measured
15	35 nM	533 nM	COc1ccc(CCC(=O)N[C@H](CNC(=O)[C@@H]2CCCN(C(=O)CCC3CCNCC3)C2)C(=O)O)cc1 [Ex. 7]	–
18	73 nM	1350 nM	CC(NCOc1ccc(C(=N)N)cc1)C(=O)N[C@@H](CC(=O)O)C(=O)N[C@@H](C(=O)N1CCS(=O)(=O)CC1)C(C)C (stereo partly drawn) [Ex. 3]	–
6.5	791 nM	5160 nM	CC(=O)N[C@@H](CNC(=O)[C@H]1CCCN(C(=O)CCC2CCNCC2)C1)C(=O)O [Ex. 12]	–
6.1	32.4 nM	198 nM	CCCCCCC(=O)N[C@H](CNC(=O)[C@@H]1CCCN(C(=O)CCC2CCNCC2)C1)C(=O)O [Ex. 16]	–
–	–	–	[11CH3]N(CC(=O)c1ccc(OCC(=O)O)c(OCC(=O)O)c1)C(=O)/C=C/C1CCNCC1 [Production Ex. 21, 2,2′-[[4-({[^11C]methyl[(2E)-3-(4-piperidinyl)-2-propenoyl]amino}acetyl)-1,2-phenylene]bis(oxy)]diacetic acid trifluoroacetate]	Thrombus/Blood ratio (monkey thrombus model): 24.2 ± 17.9; Thrombus/Muscle ratio (monkey thrombus model): 94.8 ± 65.0; Thrombus/Blood ratio (monkey thrombus model; [1]): approximately 24; Thrombus/Muscle ratio (monkey thrombus model; [1]): approximately 95; Blood accumulation of radioactivity (monkey thrombus model; intravenous 740 MBq, arterial blood): 0.084 ± 0.012 % ID/g/kg; Muscle accumulation of radioactivity (monkey thrombus model; intravenous 740 MBq, thigh muscle): 0.021 ± 0.005 % ID/g/kg; Thrombus accumulation of radioactivity (monkey thrombus model; intravenous 740 MBq, thrombus): 1.902 ± 1.132 % ID/g/kg
59	135 nM	7900 nM	CN(CC(=O)c1ccc(OCC(=O)O)c(OCC(=O)O)c1)C(=O)/C=C/C1CCNCC1 [Ex. 1, 2,2′-{[4-([methyl[(2E)-3-(4-piperidinyl)-2-propenoyl]amino}acetyl)-1,2-phenylene]bis(oxy)]diacetic acid hydrochloride]	–
7.8	56 nM	434 nM	CC(=O)N[C@@H](CNC(=O)[C@@H]1CCCN(C(=O)/C=C/C2CCNCC2)C1)C(=O)O [Ex. 6]	–
–	49 nM	1520 nM	CCC(=O)N[C@@H](CNC(=O)[C@@H]1CCCN(C(=O)CCC2CCNCC2)C1)C(=O)O [Ex. 8]	–
6.5	88 nM	479 nM	COc1ccc(CCC(=O)N[C@@H](CNC(=O)[C@@H]2CCCN(C(=O)CCC3CCNCC3)C2)C(=O)O)cc1 [Ex. 11]	–
19	320 nM	6210 nM	CN(CC(=O)c1ccc(OCC(=O)O)c(OCCF)c1)C(=O)/C=C/C1CCNCC1 [Ex. 15]	–
7.9	6.1 nM	48 nM	CC(C)CCCOc1ccc(C(=O)N[C@@H](CNC(=O)[C@H]2CCCN(C(=O)CCC3CCNCC3)C2)C(=O)O)cc1 [Ex. 18]	–
17	9.1 nM	151 nM	CC(C)CCC(=O)Nc1cccc(C(=O)N[C@@H](CNC(=O)[C@H]2CCCN(C(=O)CCC3CCNCC3)C2)C(=O)O)c1 [Ex. 19]	–
13	103 nM	1320 nM	CC(C)[C@H](NC(=O)[C@H](CC(=O)O)NC(=O)CCCOc1ccc(C(=N)N)cc1)C(=O)O [Reference Ex. 4, FK633, reference compound]	–
1.8	45 nM	80 nM	N=C(N)c1ccc(C(=O)N[C@@H](Cc2ccc(O)cc2)C(=O)N2CCC(OCC(=O)O)CC2)cc1 [Reference Ex. 3, Lamifiban, reference compound]	–
13	55 nM	727 nM	CC(=O)OCC(=O)N[C@H](CNC(=O)[C@@H]1CCCN(C(=O)CCC2CCNCC2)C1)C(=O)O [Ex. 9]	–
9.2	272 nM	2510 nM	N[C@@H](CNC(=O)[C@@H]1CCCN(C(=O)CCC2CCNCC2)C1)C(=O)O [Ex. 10]	–
8.0	30 nM	239 nM	CC(C)CC(=O)Nc1cccc(C(=O)N[C@@H](CNC(=O)[C@H]2CCCN(C(=O)CCC3CCNCC3)C2)C(=O)O)c1 [Ex. 20]	–
16	29.9 nM	486 nM	COC(=O)COc1ccc(C(=O)N[C@H](CNC(=O)[C@@H]2CCCN(C(=O)CCC3CCNCC3)C2)C(=O)O)cc1 [Ex. 17]	–
14	291 nM	4050 nM	COc1cc(C(=O)CN(C)C(=O)/C=C/C2CCNCC2)ccc1OCC(=O)O [Ex. 14]	–
6.3	260 nM	1630 nM	N=C(N)c1ccc(OCC(=O)Nc2ccc(OCC(=O)O)c(C(=O)O)c2)cc1 [Ex. 4]	–

Compound	R/A ratio (active GPIIb/IIIa)	IC50 (active GPIIb/IIIa; ADP final concentration 2.5 μM)	IC50 (resting GPIIb/IIIa)	also measured
Echistatin [compound 1, reference compound]	0.38	–	–	A Inhibition of platelet aggregation IC50 (active GPIIb/IIIa; human PRP, ADP final concentration 2.5 μM, value printed in μg/ml): 0.36 µg/mL; R Suppression of fibrinogen adhesion IC50 (resting GPIIb/IIIa; PGE1-treated platelets, human fibrinogen coated plates, value printed in μg/ml): 0.14 µg/mL
